Measurements as given in patent US9624238B2, “4H-thieno[3,2-C]chromene-based inhibitors of Notum Pectinacetylesterase and methods of their use” (Lexicon Pharmaceuticals, Inc., priority 2011, dated 2017).

What was measured:
[1] = target: T1, human notum pectinacetyltransferase (Homo sapiens, UniProt Q6P988); test: Binding assay (OPTS esterase substrate, fluorimetric); type: biochemical
T1 construct: made in house; unpurified conditioned medium used
T1 sequence (Q6P988 20-496): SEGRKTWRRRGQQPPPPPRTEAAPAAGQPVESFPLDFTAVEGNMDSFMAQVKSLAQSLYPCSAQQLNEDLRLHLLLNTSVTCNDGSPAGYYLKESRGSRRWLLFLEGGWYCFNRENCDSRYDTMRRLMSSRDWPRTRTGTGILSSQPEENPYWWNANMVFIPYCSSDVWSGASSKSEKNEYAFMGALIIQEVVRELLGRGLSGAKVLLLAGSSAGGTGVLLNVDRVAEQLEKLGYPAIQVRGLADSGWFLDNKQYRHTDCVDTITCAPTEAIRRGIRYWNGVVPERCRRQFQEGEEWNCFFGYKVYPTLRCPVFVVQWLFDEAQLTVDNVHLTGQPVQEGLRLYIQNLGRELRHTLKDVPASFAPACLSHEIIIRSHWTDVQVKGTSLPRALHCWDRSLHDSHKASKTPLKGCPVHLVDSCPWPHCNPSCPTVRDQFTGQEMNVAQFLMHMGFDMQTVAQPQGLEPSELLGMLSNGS
Description: Plasmid containing human notum pectinacetyltransferase in pcDNA3.1(+) vector was transfected into HEK (293 cells and clones were selecting by growing in presence of 400 ug/mL of G418. Condition media from these cells was used for the assay.

[2] = target: T1, human notum pectinacetyltransferase; test: Reporter assay (CellSensor LEF/TCF-bla FreeStyle 293F cells, Wnt3a and notum conditioned media); type: cell-based; settings: class symbols
Description: Plasmid containing human notum pectinacetyltransferase in pcDNA3.1(+) vector was transfected into HEK (293 cells and clones were selecting by growing in presence of 400 ug/mL of G418. The clone containing highest expression of human notum pectinacetyltransferase in the conditioned media was maintained for all future activity assays. L cells overexpressing and secreting Wnt3a into the conditioned media were purchased from ATCC.
The assay protocol was as follows. […] The cell growth medium consisted of DMEM with 10% Dialyzed FBS, 5 μg/ml Blasticidin (Invitrogen, R210-01), 0.1 mM NEAA, 25 mM HEPES and 1×GPS. Cells were then trypsinized by first rinsing with PBS, followed by addition of 5 mL of trypsin and incubation of plates at room temperature for two minutes. A total of 10 mL of assay media (Opti-MEM, plus 0.5% dialyzed FBS, 0.1 mM NEAA, 1 mM sodium pyruvate, 10 mM HEPES, 1×GPS) was then added per 15 cm plate. Cells were counted and suspended at 0.75 million cells per mL. […] After incubation of cells at 37° C. for 3 hours, 10 μL of 30 mM LiCl in assay medium was added per well, followed by incubation at 37° C. for another 3 hours. […] Ten μL of the Wnt3a/notum pentinacetyltransferase mixture was then transferred from Greiner plates to each well of the 384-well plates containing the CellSensor cells.

[3] = given as a numeric bound above the legend's range
[4] = given as numeric bound above the legend's highest class

Structure (SMILES) | IC50 ([1]; class symbols) [nM] | EC50 [2] [nM] | IC50 [1, 3] [nM] | IC50 [1, 4] [nM]
O=C(O)C1CN(C(=O)c2cc3c(s2)-c2ccc(Cl)c(F)c2OC3)CC1c1cccs1 (stereo not shown) | < 1000 | < 50 |  | 
CCOC(=O)c1cc2c(s1)-c1cc(F)ccc1OC2 |  |  | > 2000 | 
NC(=O)c1cc2c(s1)-c1c(F)cccc1OC2 | < 50 | < 50 |  | 
O=C(O)C1CCCN1C(=O)c1cc2c(s1)-c1cc(F)cc(F)c1SC2 (stereo not shown) | < 2000 |  |  | 
O=C(NC1CC1)c1cc2c(s1)-c1ccccc1CC2 |  | < 50 | > 2000 | 
COc1ccc2c(c1)-c1sc(C(=O)O)cc1CS2(=O)=O |  | < 500 | > 2000 | 
NC(=O)c1cc2c(s1)-c1c(Cl)ccc(Cl)c1OC2 | < 50 | < 50 |  | 
O=C(O)c1cc2c(s1)-c1cc(Cl)cc(Cl)c1SC2 | < 1000 | < 50 |  | 
O=C(NCCn1ccnc1)c1cc2c(s1)-c1cccc(F)c1CC2 |  | < 500 | > 2000 | 
NCCNC(=O)c1cc2c(s1)-c1ccccc1CC2 [N-(2-aminoethyl)-4,5-dihydronaphtho[1,2-b]thiophene-2-carboxamide] | < 2000 | < 500 |  | 
O=C(O)c1cc2c(s1)-c1cc(F)cc(Cl)c1SC2 | < 50 | < 50 |  | 
O=C(NCc1ccccn1)c1cc2c(s1)-c1ccc(F)c(F)c1CC2 | < 50 | < 50 |  | 
O=C(O)CNC(=O)c1cc2c(s1)-c1ccccc1CC2 | < 100 | < 50 |  | 
COC1CCN(C(=O)c2cc3c(s2)-c2cccc(F)c2CC3)C1 (stereo not shown) | < 50 | < 50 |  | 
O=C(NCCO)c1cc2c(s1)-c1cccc(F)c1CC2 | < 1000 | < 50 |  | 
NC(=O)c1cc2c(s1)-c1cc(Br)ccc1OC2 | < 1000 | < 50 |  | 
O=C(O)c1cc2c(s1)-c1cc(Cl)ccc1SC2 | < 2000 |  |  | 
COCC1CCCN1C(=O)c1cc2c(s1)-c1cc(F)cc(F)c1SC2 (stereo not shown) |  |  |  | > 2000
O=C(O)c1cc2c(s1)-c1cc(F)c(Cl)cc1SC2 | < 100 | < 50 |  | 
O=C1CCN(C(=O)c2cc3c(s2)-c2cc(F)cc(F)c2SC3)C1 | < 50 | < 50 |  | 
CC1(C)Cc2cc(C(=O)O)sc2-c2cc(Br)ccc21 |  |  | > 2000 | 
O=C(c1cc2c(s1)-c1cc(F)c(Cl)cc1SC2)N1CC[C@H](F)C1 | < 1000 | < 50 |  | 
N#CC1CCN(C(=O)c2cc3c(s2)-c2ccc(Cl)c(F)c2OC3)C1 (stereo not shown) | < 1000 | < 50 |  | 

Structure (SMILES) | IC50 ([1]; class symbols) [nM] | EC50 [2] [nM] | IC50 [1, 3] [nM] | IC50 [1, 4] [nM]
O=C(O)c1cc2c(s1)-c1ccc(F)cc1SC2 | < 1000 | < 50 |  | 
Cc1cc2c(cc1Cl)-c1sc(C(=O)O)cc1CO2 | < 1000 | < 50 |  | 
COCCNC(=O)c1cc2c(s1)-c1ccccc1CCC2 |  | < 500 |  | > 2000
O=C(O)c1cc2c(s1)-c1cc(Cl)c(C(F)(F)F)cc1OC2 | < 1000 | < 50 |  | 
O=C(O)c1cc2c(s1)-c1ccc(F)cc1OC2 | < 2000 | < 50 |  | 
O=C(c1cc2c(s1)-c1cc(F)cc(F)c1SC2)N1CCCC1CO (stereo not shown) | < 1000 | < 100 |  | 
NC(=O)c1cc2c(s1)-c1ccc(Cl)c(Cl)c1SC2 | < 100 | < 50 |  | 
CCOC(=O)c1cc2c(s1)-c1cccc(C#N)c1CC2 |  |  |  | > 2000
COC(=O)c1cc2c(s1)-c1ccccc1CC2 | < 1000 | < 50 |  | 
Cc1ccc(C)c2c1SCc1cc(C(=O)O)sc1-2 |  | < 50 | > 2000 | 
CCOC(=O)c1cc2c(s1)-c1cc(C)cc(C)c1CC2 | < 2000 | < 100 |  | 
COc1ccc2c(c1Cl)CCc1cc(C(=O)NCCc3nnn[nH]3)sc1-2 | < 1000 | < 50 |  | 
O=C(O)c1cc2c(s1)-c1ccccc1SCC2 |  | < 100 |  | > 2000
NC(=O)c1cc2c(s1)-c1ccc(F)c(F)c1OC2 | < 50 | < 50 |  | 
O=C(O)c1cc2c(s1)-c1c(F)ccc(Cl)c1OC2 | < 1000 | < 50 |  | 
COC(=O)C1CN(C(=O)c2cc3c(s2)-c2cc(C)cc(F)c2CC3)CC1c1ccccc1 (stereo not shown) | < 1000 | < 50 |  | 
CCOC(=O)c1cc2c(s1)-c1cc(C)cc(F)c1CC2 | < 1000 | < 50 |  | 
NC(=O)c1cc2c(s1)-c1ccsc1CC2 | < 50 | < 50 |  | 
CC1Cc2cc(C(=O)O)sc2-c2ccc(Cl)cc21 (stereo not shown) | < 1000 | < 50 |  | 
CCOC(=O)c1cc2c(s1)-c1cc(F)ccc1OC2C (stereo not shown) |  |  |  | > 2000
CC1Cc2cc(C(=O)O)sc2-c2cc(F)ccc21 (stereo not shown) | < 50 | < 50 |  | 
Cc1ccc2c(c1)CCc1cc(C(=O)O)sc1-2 | < 1000 |  |  | 
